This test has as its target Human Fatty Acid Binding Protein (FABP4) (Homo sapiens, UniProt P15090). The test can be described thus: Binding inhibition assay: displacement of the fluorescent probe ANS from FABP4. The conditions noted are these: for binding to FABP4 (in words): ANS displacement.

Sequence of Human Fatty Acid Binding Protein (FABP4) (P15090 whole entry): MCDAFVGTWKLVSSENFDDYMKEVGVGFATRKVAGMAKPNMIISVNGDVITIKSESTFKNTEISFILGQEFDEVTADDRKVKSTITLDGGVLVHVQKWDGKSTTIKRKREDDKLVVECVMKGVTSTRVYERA

As to `O=C(O)C(F)(F)C(F)(F)C(F)(F)C(F)(F)C(F)(F)C(F)(F)F` [PFHpA, Perfluoroheptanoic Acid], the Kd turned out to be 4.46 ± 0.17 µM. Moreover, the “fold increase in affinity relative to hydrogenated analog heptanoic acid” value (ratio of Kd values) is on record as “approximately 30 fold”.

Take `CCCCC(=O)O` [Pentanoic Acid]: the “binding to FABP4 (in words)” value is “no detectable binding”.

`O=C(O)C(F)(F)C(F)(F)C(F)(F)C(F)(F)C(F)(F)C(F)(F)C(F)(F)C(F)(F)C(F)(F)C(F)(F)C(F)(F)F` [PFDoA, Perfluorododecanoic Acid] registered a Kd below 1 µM.

As for `CCCC(=O)O` [Butanoic Acid], the “binding to FABP4 (in words)” value was “no detectable binding”.

For `CCCCCC(=O)O` [Hexanoic Acid], the “binding to FABP4 (in words)” value was “no detectable binding”.

In turn, `CCCCCCC(=O)O` [Heptanoic Acid] gave a Kd of 145 ± 3.1 µM.

By Kd is commonly meant the constant that tells how readily two partners part at equilibrium. Low values mean tighter binding, high ones weaker binding.
